Earlier results on one molecule are cited in PubChem BioAssay AID1259409 (Chemical Carcinogenesis Research Information System (CCRIS), 2018).

This data set relates to rodent chemically induced tumor inhibition, incidence and multiplicity. The experiment in a line: CCRIS tumor inhibitor studies. Particulars: Carcinogen: 7,12-DIMETHYLBENZ[A]ANTHRACENE; 57-97-6; Dose [Inhibitor]: 81 NMOL IN 100 µL ACETONE/DMSO (99:1) APPLIED 40 MIN PRIOR TO EACH PROMOTER DOSE (STUDY DURATION: 18 WK); Route [Inhibitor]: DERMAL; Species: MOUSE; Strain/Sex: ICR; Target Tissue: Type of Lesion: SKIN: CARCINOMA; Dose [Carcinogen]: 100 UG ONCE; Promoter: 12-O-TETRADECANOYLPHORBOL-13-ACETATE; 16561-29-8.

Each structure is given as a SMILES string.

For `CC1(C)CC[C@]2(CO)CC[C@]3(C)C(=CC[C@@H]4[C@@]5(C)CC[C@H](O)[C@@](C)(CO)[C@@H]5CC[C@]43C)[C@@H]2C1`, the “tumour outcome (control, treated, inhibition, significance)” value was 100%, 40%, 60%, not calculated.
